For two compounds, Ki results are on record in BindingDB's records for doi:10.1016/j.bmcl.2006.01.095 (Technische Universität Graz, 2006).

Experiment [1] is described as follows: Inhibition of jack beans alpha-mannosidase.
The nature of experiment [2]: Inhibition of Streptomyces plicatus beta-D-hexosaminidase.

`CN(C)c1ccc(-c2cnc(-c3ccc(S(=O)(=O)NCCCCCCN4C[C@H](O)[C@@H](O)[C@H](O)[C@H]4CO)cc3)o2)cc1` [4-(5-(4-(dimethylamino)phenyl)oxazol-2-yl)-N-(6-((2R,3R,4R,5S)-3,4,5-trihydroxy-2-(hydroxymethyl)piperidin-1-yl)hexyl)benzenesulfonamide]: the affinity in experiment [1] corresponds to a Ki of 65 µM.
In the case of `CC(=O)N[C@H]1CN(CCCCCCNS(=O)(=O)c2cccc3c(N(C)C)cccc23)[C@H](CO)[C@@H](O)[C@@H]1O` [N-((3S,4R,5R,6R)-1-(6-(1-(dimethylamino)naphthalene-5-sulfonamido)hexyl)-4,5-dihydroxy-6-(hydroxymethyl)piperidin-3-yl)acetamide], the affinity in experiment [2], expressed as Ki, was 1.8 µM.

As usually defined, the Ki is a dissociation constant, usually derived from enzyme kinetics or from competition with a known ligand.
